Measured values reported in patent US11981666B2, “GLP-1 receptor agonist and composition and use thereof” (HANGZHOU ZHONGMEIHUADONG PHARMACEUTICAL CO., LTD., priority 2021, dated 2024).
Values joined by “and” are separate entries in the source; they are usually repeats but may differ in a detail not shown here. Equal values may be shown once. Read-outs that look alike come from different tables or passages of the source.

Columns and labels:
[1] = Metabolic stability in (human) liver microsomes; type: in vitro ADME; conditions: pH 7.4, test concentration 1 μM
Experimental: 3×NADPH stock solution (6 mM, 5 mg/mL) was prepared by dissolving NADPH in the buffer solution; 4. 30 μL of 1.5 μM additive solution containing 0.75 mg/mL microsomal solution was distributed to the plates designated for different time points (0, 5, 15, 30, 45 minutes); 5. at 0 min, 150 μL of ACN containing IS was added to the wells of the plate, followed by addition of 15 μL of NADPH stock solution (6 mM, step 3); 6. all other plates were pre-incubated at 37° C. for 5 minutes; 7. adding 15 μL of NADPH stock solution to the plate to start the reaction and timing; 8. 150 μL of ACN containing IS was added to the wells of the corresponding plates to stop the reaction at 5 min, 15 min, 30 min and 45 min, respectively; 9. after quenching, the plates were shaken on a shaker for 10 minutes (600 rpm/min) and then centrifuged at 6000 rpm for 15 minutes; 10. 80 μL of supernatant was transferred from each well to a 96-well sample plate containing 140 μL water for LC/MS analysis.
Detection method: LC-MS/MS-11 (8050), internal standard: tolbutamide; MS conditions: positive ion ESI for testosterone and test compound, and negative ion ESI for tolbutamide; Mobile phases: mobile phase A is 0.1% FA in water, and mobile phase B is 0.1% FA in ACN; Column and specification: ACQUITY UPLC HSS T3 1.8 um 2.1*50 mm.

[2] = Toxicological experiment in mice, 14-day repeated oral gavage (toxicokinetic study); type: in vivo, mouse; conditions: ICR, mouse, po, 200 mg/kg, Day 14; for AUC(0-t): plasma
Experimental: (§1) Experimental method: 212 ICR mice (SPF grade), half male and half female. Animals in groups 1-5 were used for toxicity study, with 10 male and 10 female animals in each group; and animals in groups 6-9 were used for toxicokinetic study, with 14 male and 14 female animals in each group (2 of them were spare animals). […] Animals in Groups 1-9 were administered orally once a day for 14 consecutive days.

ICR mice [3] = test: as above; type: in vivo, mouse; conditions: toxicokinetic study, female animals, 200 mg/kg oral once a day for 14 days
Experimental: as §1

hERG potassium channels = molecular target: T1, hERG potassium channels (Homo sapiens, UniProt Q12809); test: Test for inhibition of hERG potassium channels (whole-cell patch clamp, HEK-293-hERG cells); type: cell-based; conditions: for hERG (IR): inhibition rate of tail current
T1 construct: expressed in transfected cells; host or cells: HEK-293-hERG cells
Excerpt: Positive control: Amitriptyline hydrochloride or Terfenadine

ICR mice [4] = test: Toxicological experiment in mice, 14-day repeated oral gavage (toxicity study); type: in vivo
Experimental: as §1

[5] = Caco-2 cell transport experiment; type: in vitro ADME; conditions: human
Experimental: Caco-2 cells, 77th passage; HBSS, Lot: G210713; ACN+IS (tolbutamide 200 ng/mL); Caco-2 was inoculated on polyethylene (PET) in a 96-well Falcon plate at 2×10^5 cells/cm^2 until a confluent cell monolayer was formed on day 21-28. The culture medium was changed every 3-4 days. The test compound was diluted to a concentration of 10 uM with a transport buffer of 10 mM stock solution (HBSS without BSA) and applied to the apical side or the basolateral side of the cell monolayer. Incubation was carried out at 37° C., 5% CO2, and 95% relative humidity for 120 minutes, and the permeability of the test compound from the A to B direction or the B to A direction was determined in duplicate. The efflux ratio of each compound was determined. Test and reference compounds were quantitated by LC-MS/MS analysis based on the analyte/IS peak area ratio. […] [table]

Human GLP-1R = molecular target: T2, Human GLP-1R (Homo sapiens, UniProt P43220); test: GLP-1R agonistic activity assay (HTRF cAMP, 293A GFP-GLP-1R cells); type: cell-based; conditions: cAMP level, geometric mean
T2 construct: expressed in transfected cells
Excerpt: The method was a competitive immunoassay.

[6] = Pharmacokinetic experiment in cynomolgus monkeys; type: in vivo, cynomolgus monkey; conditions: for Vd: read-out: Vss; for F: oral 20 mg/kg vs intravenous 2 mg/kg
Experimental: Experimental objective: To evaluate the pharmacokinetic profile of compound 1 and compare it with compound 20 (control compound).
Experimental method: 6 male Non-juvenile cynomolgus monkeys, 4˜5 kg, were purchased from Huazheng Experimental Animal Center. Group IV was administered intravenously at a dose of 2 mg/kg (5 mL/kg) (n=3), and the group PO was administered orally at a dose of 20 mg/kg (10 mL/kg) (n=3). Approximately 500 μL blood was collected from cephalic vein and saphenous vein at each experimental time point, and centrifuged at 2,000 g for 5 min (4° C.) within 15 min after sampling for subsequent analysis.

[7] = intravenous 2 mg/kg, male, individual animals #1, #2, #3, 2 mg/kg
[8] = male, cynomolgus monkey, plasma, iv, 2 mg/kg, intravenous 2 mg/kg, Mean (n=3)
[9] = male, cynomolgus monkey, plasma, iv, 2 mg/kg, intravenous 2 mg/kg, individual animals #1, #2, #3
[10] = male, cynomolgus monkey, plasma, po, 20 mg/kg, oral 20 mg/kg, Mean (n=3)
[11] = oral 20 mg/kg, male, individual animals #4, #5, #6, 20 mg/kg

T1 sequence (Q12809 whole entry): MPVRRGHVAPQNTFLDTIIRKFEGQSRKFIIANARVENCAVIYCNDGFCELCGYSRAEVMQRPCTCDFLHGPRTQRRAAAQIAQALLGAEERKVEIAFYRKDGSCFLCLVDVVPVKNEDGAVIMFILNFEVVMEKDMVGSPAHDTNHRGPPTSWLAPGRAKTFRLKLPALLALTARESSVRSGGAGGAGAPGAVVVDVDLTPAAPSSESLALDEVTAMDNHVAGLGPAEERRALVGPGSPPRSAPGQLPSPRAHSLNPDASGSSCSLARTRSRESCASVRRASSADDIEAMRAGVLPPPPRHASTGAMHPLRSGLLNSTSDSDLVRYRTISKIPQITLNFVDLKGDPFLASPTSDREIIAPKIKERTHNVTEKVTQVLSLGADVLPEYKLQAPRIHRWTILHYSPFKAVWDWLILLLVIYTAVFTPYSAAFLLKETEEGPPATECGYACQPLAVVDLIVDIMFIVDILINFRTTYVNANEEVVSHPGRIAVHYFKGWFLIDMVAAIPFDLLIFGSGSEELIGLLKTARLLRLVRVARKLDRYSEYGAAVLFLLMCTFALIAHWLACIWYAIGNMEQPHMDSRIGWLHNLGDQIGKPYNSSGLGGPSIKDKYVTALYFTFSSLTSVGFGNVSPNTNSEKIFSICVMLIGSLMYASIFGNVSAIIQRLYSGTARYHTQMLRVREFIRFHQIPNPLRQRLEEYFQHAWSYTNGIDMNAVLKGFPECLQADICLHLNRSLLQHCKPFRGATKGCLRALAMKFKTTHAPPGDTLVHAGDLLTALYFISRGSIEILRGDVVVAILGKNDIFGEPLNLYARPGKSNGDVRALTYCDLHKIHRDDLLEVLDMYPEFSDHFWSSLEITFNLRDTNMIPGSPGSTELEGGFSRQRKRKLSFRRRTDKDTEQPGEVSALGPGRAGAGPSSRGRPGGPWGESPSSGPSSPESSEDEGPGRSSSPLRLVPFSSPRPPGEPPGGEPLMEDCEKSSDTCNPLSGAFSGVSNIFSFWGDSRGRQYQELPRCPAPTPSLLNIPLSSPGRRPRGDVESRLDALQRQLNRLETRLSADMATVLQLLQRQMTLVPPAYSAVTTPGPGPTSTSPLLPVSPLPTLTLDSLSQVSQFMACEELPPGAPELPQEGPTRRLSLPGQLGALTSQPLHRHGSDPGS
T2 sequence (P43220 24-463): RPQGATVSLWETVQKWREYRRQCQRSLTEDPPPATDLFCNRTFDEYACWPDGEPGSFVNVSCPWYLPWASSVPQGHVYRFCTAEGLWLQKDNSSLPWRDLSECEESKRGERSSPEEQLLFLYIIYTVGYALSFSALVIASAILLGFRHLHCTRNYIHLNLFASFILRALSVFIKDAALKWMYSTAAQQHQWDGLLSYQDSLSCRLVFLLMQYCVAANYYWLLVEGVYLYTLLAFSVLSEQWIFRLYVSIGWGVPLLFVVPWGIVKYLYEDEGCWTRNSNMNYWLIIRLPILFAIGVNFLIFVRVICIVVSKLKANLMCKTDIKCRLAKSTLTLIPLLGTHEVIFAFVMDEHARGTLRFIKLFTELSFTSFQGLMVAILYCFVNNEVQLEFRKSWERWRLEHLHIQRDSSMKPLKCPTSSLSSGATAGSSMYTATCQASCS

SMILES: O=C(O)c1ccc2nc(CN3CCC(c4cccc(OCc5ccc(C6COC6)cc5F)n4)CC3)n(C[C@@H]3CCO3)c2c1 [Compound 1, (S)-2-((4-(6-((2-fluoro-4-(oxetan-3-yl)benzyl)oxy)pyridin-2-yl)piperidin-1-yl)methyl)-1-(oxetan-2-ylmethyl)-1H-benzo[d]imidazole-6-carboxylic acid]
- half-life at 1 μM [1]: 2.17 h
- Cmax ([2]; plasma of female animals): 117 µg/mL
- Cmax ([2]; plasma of male animals): 81 µg/mL
- AUC(0-t) ([2]; female, plasma of female animals, read-out: AUC(0-t) (second value listed)): 271 µg·h/mL
- AUC(0-t) ([2]; female, plasma of female animals, read-out: AUC(0-t), the systemic exposure (first value listed)): 291 µg·h/mL
- AUC(0-t) ([2]; male, plasma of male animals, read-out: AUC(0-t) (second value listed)): 200 µg·h/mL
- AUC(0-t) ([2]; male, plasma of male animals, read-out: AUC(0-t), the systemic exposure (first value listed)): 218 µg·h/mL
- animals found dead (ICR mice [3]): 1/14
- IC50 (hERG potassium channels): 15.9 µM
- hERG inhibitory activity (conclusion) (hERG potassium channels): Did not Exhibit hERG Inhibitory Activity
- hERG (IR) (hERG potassium channels; 1 μM): 3.75% (1 μM)
- hERG (IR) (hERG potassium channels; 10 μM): 40.7 (10 μM) %
- non-toxic response dose level (ICR mice [4]; ICR mice, gavage once a day for 14 consecutive days): 200 mg/kg
- toxicological effects on experimental animals (conclusion) (ICR mice [4]; at the studied dose (200 mg/kg)): no significant toxicological effects
- biochemical analysis of serum (ICR mice [4]; compared to vehicle control): no significant toxicological changes
- clinical observation (ICR mice [4]; toxicity study, 100 mg/kg, presumed not related to the test compound): occasionally showed abnormal gait, decreased activity, piloerection and traumatic abnormalities
- efflux ratio at 120 min, 10 uM ([5]; Papp(BA)/Papp(AB)): 5.26
- Papp A→B at 120 min, 10 uM ([5]; apical to basolateral, 10 uM, 120 minutes): 3.14 ×10⁻⁶ cm/s
- Papp B→A at 120 min, 10 uM ([5]; basolateral to apical, 10 uM, 120 minutes): 16.5 ×10⁻⁶ cm/s
- EC50 (Human GLP-1R): 0.03 nM
- pharmacokinetic profile, orally administered (conclusion) ([6]; compared with control compound 20): significantly better than that of the control compound 20
- AUCINF [6, 7]: 14.9 hr * μM and 13.0 hr * μM and 8749 hr * ng/ml and 7622 hr * ng/ml
- AUClast [6, 7]: 14.9 hr * μM and 13.0 hr * μM and 15215 hr * ng/ml and 8739 hr * ng/ml and 7607 hr * ng/ml
- CL [6, 7]: 2.19 mL/min/kg and 3.81 mL/min/kg and 4.37 mL/min/kg and 2.18 mL/min/kg and 3.82 mL/min/kg
- MRTINF [6, 7]: 0.247 h and 0.242 h
- T1/2 [6, 7]: 1.46 h and 1.50 h
- Vss [6, 7]: 0.0564 L/kg and 0.0635 L/kg
- AUC(0-inf) [6, 8]: 18 µM·h and 10500 ng·h/mL
- AUC(0-t) [6, 8]: 17.9 µM·h and 10500 ng·h/mL
- MRT inf [6, 8]: 0.292 h
- clearance [6, 8]: 3.46 mL/min/kg
- half-life [6, 8]: 1.39 h
- AUC(0-inf) [6, 9]: 26 µM·h and 15200 ng·h/mL
- AUC(0-t) [6, 9]: 26 µM·h
- MRT inf [6, 9]: 0.387 h
- half-life [6, 9]: 1.23 h
- Vd ([6]; male, cynomolgus monkey, plasma, iv, 2 mg/kg, intravenous 2 mg/kg, male, Mean (n=3)): 0.0569 L/kg
- Vd ([6]; male, cynomolgus monkey, plasma, iv, 2 mg/kg, intravenous 2 mg/kg, male, individual animals #1, #2, #3): 0.0508 L/kg
- AUC(0-inf) [6, 10]: 61.8 µM·h and 36200 ng·h/mL
- AUC(0-t) [6, 10]: 34500 ng·h/mL and 58.9 µM·h
- MRT inf [6, 10]: 6.71 h
- half-life [6, 10]: 5.32 h
- Cmax ([6]; male, cynomolgus monkey, plasma, po, 20 mg/kg, oral 20 mg/kg, male, Mean (n=3), read-out: Cmax): 12700 ng/mL and 21.6 µM
- Tmax ([6]; male, cynomolgus monkey, plasma, po, 20 mg/kg, oral 20 mg/kg, male, Mean (n=3), read-out: Tmax): 1.67 h
- Tmax ([6]; male, cynomolgus monkey, plasma, po, 20 mg/kg, oral 20 mg/kg, male, individual animals #4, #5, #6, read-out: Tmax): 2 h
- oral bioavailability (conclusion) ([6]; oral 20 mg/kg): high oral bioavailability
- F ([6]; male, Mean (n=3)): 32.8%
- F ([6]; male, individual animals #4, #5, #6): 40.5% and 16.2% and 41.8%
- AUCINF [6, 11]: 72.8 hr * μM and 37.3 hr * μM and 75.2 hr * μM and 42676 hr * ng/ml and 21853 hr * ng/ml and 44083 hr * ng/ml
- AUClast [6, 11]: 72.6 hr * μM and 29.0 hr * μM and 75.1 hr * μM and 42563 hr * ng/ml and 17014 hr * ng/ml and 44038 hr * ng/ml
- Cmax [6, 11]: 12500 ng/mL and 2270 ng/mL and 23200 ng/mL
- MRTINF [6, 11]: 3.15 h and 14.5 h and 2.47 h
- T1/2 [6, 11]: 3.03 h and 10.4 h and 2.52 h
- Tmax [6, 11]: 1.00 h
